Reference: patent US20070004763A1, “AMINOQUINOLINE AND AMINOQUINAZOLINE KINASE MODULATORS” (priority 2005, published 2007)

Biological target: T1, TrkB (Homo sapiens, UniProt Q16620)
T1 construct: purchased Upstate 14-507M
Test: Trk B Fluorescence Polarization Kinase Assay
Type: biochemical
Conditions: 150 uM ATP, 50 nM TrkB; uncertainty ±10%
Protocol: The compounds of the present invention are also specific inhibitors of TrkB. Selection of preferred compounds of Formula I for use as TrkB inhibitors was performed in the following manner. The TrkB assay utilized the fluorescein-labeled phosphopeptide and the anti-phosphotyrosine antibody included in the Panvera Phospho-Tyrosine Kinase Kit (Green) supplied by Invitrogen. When TrkB phosphorylated poly Glu4Tyr, the fluorescein-labeled phosphopeptide was displaced from the anti-phosphotyrosine antibody by the phosphorylated poly Glu4Tyr, thus decreasing the FP value. The TrkB kinase reaction was incubated at room temperature for 30 minutes under the following conditions: 50 nM TrkB (Upstate, catalog #14-507M), 20 ug/mL poly Glu4Tyr, 150 uM ATP, 5 mM MgCl2, 1% compound in DMSO. The kinase reaction was stopped with the addition of EDTA. The fluorescein-labeled phosphopeptide and the anti-phosphotyrosine antibody were added and incubated for 30 minutes at room temperature. Data points were an average of triplicate samples. Inhibition and IC50 data analysis were done with GraphPad Prism using a non-linear regression fit with a multiparamater, sigmoidal dose-response (variable slope) equation.

T1 sequence (Q16620 526-822 limits assumed): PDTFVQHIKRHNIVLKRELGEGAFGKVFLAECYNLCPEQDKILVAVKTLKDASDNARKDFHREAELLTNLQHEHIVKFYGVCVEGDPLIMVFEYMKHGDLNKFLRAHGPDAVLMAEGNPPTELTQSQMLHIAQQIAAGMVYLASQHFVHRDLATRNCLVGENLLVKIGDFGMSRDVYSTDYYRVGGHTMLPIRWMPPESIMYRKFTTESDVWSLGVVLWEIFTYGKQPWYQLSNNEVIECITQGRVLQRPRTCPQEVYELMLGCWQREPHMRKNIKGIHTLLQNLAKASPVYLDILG

| Structure (SMILES) | IC50 [µM] |
| --- | --- |
| CC(C)c1ccc(NC(=O)OC2CCN(c3ncnc4ccc(I)cc34)C2)cc1 (stereo not shown) [Compound 20, (4-Isopropyl-phenyl)-carbamic acid 1-(6-iodo-quinazolin-4-yl)-pyrrolidin-3-yl ester] | 13.1 |
| COc1cc2ncnc(N3CCC(NC(=O)Cc4ccc(C(C)C)cc4)CC3)c2cc1OC [Compound 21, N-[1-(6,7-Dimethoxy-quinazolin-4-yl)-piperidin-4-yl]-2-(4-isopropyl-phenyl)-acetamide] | 11.2 |
| COc1cc2ncnc(N3CCC(COC(=O)Nc4ccc(C(C)C)cc4)CC3)c2cc1OC [Compound 22, (4-Isopropyl-phenyl)-carbamic acid 1-(6,7-dimethoxy-quinazolin-4-yl)-piperidin-4-ylmethyl ester] | 0.8 |
| COc1cc2ncnc(N3CCC(C(=O)Nc4ccc(OC(C)C)cc4)CC3)c2cc1OC [Compound 23, 1-(6,7-Dimethoxy-quinazolin-4-yl)-piperidine-4-carboxylic acid (4-isopropoxy-phenyl)-amide] | 0.55 |
| CC(C)c1ccc(NC(=O)OC2CCN(c3ncnc4ccccc34)C2)cc1 (stereo not shown) [Compound 24, (4-Isopropyl-phenyl)-carbamic acid 1-quinazolin-4-yl-pyrrolidin-3-yl ester] | 5.5 |
| COc1cc2ncc(C#N)c(N3CCC(NC(=O)Nc4ccc(C(C)C)cc4)C3)c2cc1OC (stereo not shown) [Compound 26, 1-[1-(3-Cyano-6,7-dimethoxy-quinolin-4-yl)-pyrrolidin-3-yl]-3-(4-isopropyl-phenyl)-urea] | 10.9 |
| CC(C)c1ccc(NC(=O)NC2CCN(c3ccnc4ccccc34)C2)cc1 (stereo not shown) [Compound 27, (4-Isopropyl-phenyl)-3-(1-quinolin-4-yl)-pyrrolidin-3-yl-urea] | 7.7 |
| COc1cc2ncnc(N3CCCC(NC(=O)Nc4ccc(C(C)C)cc4)C3)c2cc1OC (stereo not shown) [Compound 28, 1-[1-(6,7-Dimethoxy-quinazolin-4-yl)-piperidin-3-yl]-3-(4-isopropyl-phenyl)-urea] | 0.3 |
| COc1cc2ncc(C#N)c(N3CCC(NC(=O)Nc4ccc(OC(C)C)cc4)C3)c2cc1OC (stereo not shown) [Compound 29, 1-[1-(3-Cyano-6,7-dimethoxy-quinolin-4-yl)-pyrrolidin-3-yl]-3-(4-isopropoxy-phenyl)-urea] | 10.3 |
| COc1cc2ncnc(N3CCCC(OC(=O)Nc4ccc(C(C)C)cc4)C3)c2cc1OC (stereo not shown) [Compound 31, (4-Isopropyl-phenyl)-carbamic acid 1-[1-(6,7-dimethoxy-quinazolin-4-yl)-piperidin-3-yl]ester] | 0.2 |
| COc1cc2ncc(C#N)c(N3CCC(OC(=O)Nc4ccc(OC(C)C)cc4)C3)c2cc1OC (stereo not shown) [Compound 32, (4-Isopropoxy-phenyl)-carbamic acid 1-(3-cyano-6,7-dimethoxy-quinolin-4-yl)-pyrrolidin-3-yl ester] | 5.3 |
| COc1cc2ncnc(N3CCCCC3COC(=O)Nc3ccc(C(C)C)cc3)c2cc1OC (stereo not shown) [Compound 33, (4-Isopropyl-phenyl)-carbamic acid 1-(6,7-dimethoxy-quinazolin-4-yl)-piperidin-2-ylmethyl ester] | 5 |
| CC(C)c1ccc(NC(=O)OC2CCN(c3ccnc4ccccc34)C2)cc1 (stereo not shown) [Compound 34] | 7.6 |
| COc1cc2ncnc(N3CCC(NC(=O)Cc4ccc(C(C)C)cc4)C3)c2cc1OC (stereo not shown) [Compound 35, N-[1-(6,7-Dimethoxy-quinazolin-4-yl)-pyrrolidin-3-yl]-2-(4-isopropyl-phenyl)-acetamide] | 6.5 |
| COc1cc2ncc(C#N)c(N3CCC(OC(=O)Nc4ccc(C(C)C)cc4)C3)c2cc1OC (stereo not shown) [Compound 37, (4-Isopropyl-phenyl)-carbamic acid 1-(3-cyano-6,7-dimethoxy-quinolin-4-yl)-pyrrolidin-3-yl ester] | 8.48 |
| CC(C)Oc1ccc(NC(=O)NC2CCN(c3ccnc4ccccc34)C2)cc1 (stereo not shown) [Compound 38, (4-Isopropoxy-phenyl)-3-(1-quinolin-4-yl)-pyrrolidin-3-yl-urea] | 26.8 |
| CC(C)Oc1ccc(NC(=O)OC2CCN(c3ccnc4ccccc34)C2)cc1 (stereo not shown) [Compound 39] | 9.1 |

| Structure (SMILES) | IC50 [µM] |
| --- | --- |
| COc1cc2ncc(C#N)c(N3CCC(OC(=O)Nc4ccc(OC(C)C)cc4)CC3)c2cc1OC [Compound 40, (4-Isopropoxy-phenyl)-carbamic acid 1-(3-cyano-6,7-dimethoxy-quinolin-4-yl)-piperidin-4-yl ester] | 11.8 |
| CC(C)Oc1ccc(NC(=O)OC2CCN(c3ccnc4ccccc34)CC2)cc1 [Compound 41] | 14 |
| COc1cc2ncc(C#N)c(N3CCC(OC(=O)Nc4ccc(C(C)C)cc4)CC3)c2cc1OC [Compound 42, (4-Isopropyl-phenyl)-carbamic acid 1-(3-cyano-6,7-dimethoxy-quinolin-4-yl)-piperidin-4-yl ester] | > 42 |
| COc1cc2ncnc(N3CCC(NC(=O)Nc4ccc(N5CCOCC5)cc4)C3)c2cc1OC (stereo not shown) [Compound 43, 1-[1-(6,7-Dimethoxy-quinazolin-4-yl)-pyrrolidin-3-yl]-3-(4-morpholin-4-yl-phenyl)-urea] | 40.6 |
| COc1cc2ncnc(N3CCC(NC(=O)Nc4ccc(OC5CCC5)nc4)C3)c2cc1OC (stereo not shown) [Compound 44, 1-(6-Cyclobutoxy-pyridin-3-yl)-3-[1-(6,7-dimethoxy-quinazolin-4-yl)-pyrrolidin-3-yl]-urea] | 4.88 |
| COc1cc2ncnc(N3CCC(NC(=O)Nc4ccc(OC5CCCC5)nc4)C3)c2cc1OC (stereo not shown) [Compound 45, 1-(6-Cyclopentyloxy-pyridin-3-yl)-3-[1-(6,7-dimethoxy-quinazolin-4-yl)-pyrrolidin-3-yl]-urea] | 11.8 |
| COc1cc2ncnc(N3CCC(NC(=O)Nc4ccc(N5CCCC5)nc4)C3)c2cc1OC (stereo not shown) [Compound 46, 1-[1-(6,7-Dimethoxy-quinazolin-4-yl)-pyrrolidin-3-yl]-3-(6-pyrrolidin-1-yl-pyridin-3-yl)-urea] | 24.8 |
| COc1cc2ncnc(N3CCC(NC(=O)Nc4ccc(N5CCCCC5)cc4)C3)c2cc1OC (stereo not shown) [Compound 47, 1-[1-(6,7-Dimethoxy-quinazolin-4-yl)-pyrrolidin-3-yl]-3-(4-piperidin-1-yl-phenyl)-urea] | 12 |
| COc1cc2ncnc(N3CCC(NC(=O)Nc4ccc(Cl)cc4)C3)c2cc1OC (stereo not shown) [Compound 48, 1-(4-Chloro-phenyl)-3-[1-(6,7-dimethoxy-quinazolin-4-yl)-pyrrolidin-3-yl]-urea] | 16 |
| COc1cc2ncnc(N3CCC(NC(=O)Nc4ccc(N5CCCC5)cc4)C3)c2cc1OC (stereo not shown) [Compound 49, 1-[1-(6,7-Dimethoxy-quinazolin-4-yl)-pyrrolidin-3-yl]-3-(4-pyrrolidin-1-yl-phenyl)-urea] | 3.88 |
| COc1cc2ncnc(N3CCC(NC(=O)Nc4ccc(C5CCCCC5)cc4)C3)c2cc1OC (stereo not shown) [Compound 50, 1-(4-Cyclohexyl-phenyl)-3-[1-(6,7-dimethoxy-quinazolin-4-yl)-pyrrolidin-3-yl]-urea] | > 46 |
| COc1cc2ncnc(N3CCC(NC(=O)Nc4ccc(Oc5ccccc5)cc4)C3)c2cc1OC (stereo not shown) [Compound 51, 1-[1-(6,7-Dimethoxy-quinazolin-4-yl)-pyrrolidin-3-yl]-3-(4-phenoxy-phenyl)-urea] | 2.74 |
| COc1cc2ncnc(N3CCC(NC(=O)Nc4ccc(N(C)C)cc4)C3)c2cc1OC (stereo not shown) [Compound 52, 1-[1-(6,7-Dimethoxy-quinazolin-4-yl)-pyrrolidin-3-yl]-3-(4-dimethylamino-phenyl)-urea] | 22.7 |
| COc1cc2ncnc(N3CCC(NC(=O)Nc4ccc(OC5CCCC5)cc4)C3)c2cc1OC (stereo not shown) [Compound 53, 1-(4-Cyclopentyloxy-phenyl)-3-[1-(6,7-dimethoxy-quinazolin-4-yl)-pyrrolidin-3-yl]-urea] | 4.07 |
| COc1cc2ncnc(N3CCC(OC(=O)Nc4ccc(OC5CCCC5)cc4)C3)c2cc1OC (stereo not shown) [Compound 54, (4-Cyclopentyloxy-phenyl)-carbamic acid 1-(6,7-dimethoxy-quinazolin-4-yl)-pyrrolidin-3-yl ester] | 44.6 |
| COc1cc2ncnc(N3CCC(OC(=O)Nc4ccc(OC5CCCC5)cc4)CC3)c2cc1OC [Compound 55, (4-Cyclopentyloxy-phenyl)-carbamic acid 1-(6,7-dimethoxy-quinazolin-4-yl)-piperidin-4-yl ester] | > 46 |
| COc1cc2ncnc(N3CCC(COC(=O)Nc4ccc(OC5CCCC5)cc4)CC3)c2cc1OC [Compound 56, (4-Cyclopentyloxy-phenyl)-carbamic acid 1-(6,7-dimethoxy-quinazolin-4-yl)-piperidin-4-ylmethyl ester] | 6.58 |
